Earlier results on seven substances are cited in publication PMC3974845 (International journal of peptide research and therapeutics, 2013).

Read-outs that look alike come from different tables or passages of the source. [ ]: non-standard residue; d: D form. pY = N[C@@H](Cc1ccc(OP(=O)(O)O)cc1)C(=O)O

The target of the series is full length Stat3 (SH2 domain) (Homo sapiens, UniProt P40763).
Where [1] appears, read: affinity for Stat3, Table 1, ref Coleman et al. 2005.
The mark [2] stands for this setting: affinity for Stat3, Table 1, ref Mandal et al. 2009b.
Where [3] appears, read: affinity for Stat3, Table 1, ref Mandal et al. 2011.

full length Stat3 (SH2 domain), sequence (P40763 whole entry, species assumed, the tested form may be a part): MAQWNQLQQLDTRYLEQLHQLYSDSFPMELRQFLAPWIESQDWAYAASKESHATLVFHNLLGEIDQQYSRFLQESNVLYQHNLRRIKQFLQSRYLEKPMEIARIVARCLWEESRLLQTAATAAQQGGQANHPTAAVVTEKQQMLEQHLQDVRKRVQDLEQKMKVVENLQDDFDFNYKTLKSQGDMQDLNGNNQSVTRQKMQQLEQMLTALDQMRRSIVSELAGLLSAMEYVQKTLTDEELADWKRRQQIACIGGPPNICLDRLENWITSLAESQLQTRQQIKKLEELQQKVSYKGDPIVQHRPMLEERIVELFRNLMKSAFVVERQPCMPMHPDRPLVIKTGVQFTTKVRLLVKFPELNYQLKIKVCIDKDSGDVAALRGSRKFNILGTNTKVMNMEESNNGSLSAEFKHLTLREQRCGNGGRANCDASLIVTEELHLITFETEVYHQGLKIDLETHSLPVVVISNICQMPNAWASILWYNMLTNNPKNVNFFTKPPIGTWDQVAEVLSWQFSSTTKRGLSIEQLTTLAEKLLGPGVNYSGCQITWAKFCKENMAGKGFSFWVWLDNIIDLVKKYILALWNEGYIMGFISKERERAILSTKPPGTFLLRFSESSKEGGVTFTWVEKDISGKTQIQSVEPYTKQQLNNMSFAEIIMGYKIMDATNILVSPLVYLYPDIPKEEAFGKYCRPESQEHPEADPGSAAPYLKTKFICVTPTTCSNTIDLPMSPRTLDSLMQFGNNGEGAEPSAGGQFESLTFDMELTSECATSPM

For “Ac-pTyr-Leu-Pro-Gln-Val- NH2 (Ac-[pY]LPQV-NH2; SMILES CC(=O)N[C@@H](Cc1ccc(OP(=O)(O)O)cc1)C(=O)N[C@@H](CC(C)C)C(=O)N1CCC[C@H]1C(=O)N[C@@H](CCC(N)=O)C(=O)N[C@H](C(N)=O)C(C)C) [Compound 11]”, under setting [1], the IC50 is 739 ± 31 nM.
As to pCinn-Leu-Pro-Gln-NHBn [Compound 13], under setting [2], the half-inhibitory concentration (IC50) is 138 ± 8 nM.
With “βMpCinn-Leu-mPro-Gln- NHBn [Compound 16]”, under setting [3], the IC50 was 46 ± 5 nM.
For the substance pCinn-Leu-mPro-Gln-NHBn [Compound 14], under setting [2], the IC50 is 68 ± 8 nM.
Regarding βMpCinn-Leu-mPro-Apa [Compound 18], the IC50 by setting is: under setting [3], 88 ± 11 nM; (βMpCinn-Leu-Xaa-Apa series, fluorescence polarization, ref Mandal et al. 2011) 88 ± 11 nM.
Consider βMpCinn-Leu-Pro-Gln- NHBn [Compound 15], for which the half-inhibitory concentration (IC50) under setting [3] is 70 ± 15 nM.
“Ac-pTyr-Leu-mPro-Gln-Val- NH2 [Compound 12]”: under setting [1], the IC50 was 265 ± 14 nM.

The IC50 is the concentration that gives 50% inhibition.
